In patent US20230192705A1, “SHP2 INHIBITORS, COMPOSITIONS AND USES THEREOF” (Betta Pharmaceuticals Co., Ltd, priority 2020, published 2023):
pIC50: −log10 of the molar value.

Target: T1, SHP2 (Homo sapiens, UniProt Q06124)
T1 sequence (Q06124 1-593): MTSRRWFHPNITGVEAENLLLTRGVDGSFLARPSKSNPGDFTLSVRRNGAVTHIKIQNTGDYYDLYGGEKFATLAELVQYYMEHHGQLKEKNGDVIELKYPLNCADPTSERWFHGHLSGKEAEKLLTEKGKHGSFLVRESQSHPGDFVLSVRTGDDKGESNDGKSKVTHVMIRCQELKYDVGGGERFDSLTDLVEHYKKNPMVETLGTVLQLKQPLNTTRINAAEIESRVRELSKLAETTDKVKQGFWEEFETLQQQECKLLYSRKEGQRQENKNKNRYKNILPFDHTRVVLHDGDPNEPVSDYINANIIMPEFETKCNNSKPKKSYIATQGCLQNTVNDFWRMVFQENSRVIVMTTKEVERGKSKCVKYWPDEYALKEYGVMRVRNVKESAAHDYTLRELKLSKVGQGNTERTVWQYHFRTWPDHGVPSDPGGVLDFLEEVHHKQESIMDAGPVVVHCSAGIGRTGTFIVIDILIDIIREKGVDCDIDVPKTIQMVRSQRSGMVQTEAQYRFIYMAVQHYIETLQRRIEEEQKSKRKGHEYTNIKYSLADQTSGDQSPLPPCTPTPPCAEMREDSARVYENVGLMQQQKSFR
Test: SHP2 allosteric inhibitor enzyme activity assay (DiFMUP fluorescence)
Assay type: biochemical
Conditions: class symbols
Method in brief: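 SHP2 activated by 0.5 μM IRS1_pY1172(dPEG8)pY1222 peptide, 0.2 ng enzyme per well, 1 h at room temperature with compound (1 μM top, 3-fold series), then DiFMUP substrate 1 h. Buffer: 60 mM HEPES, 75 mM NaCl, 75 mM KCl, 0.05% BRIJ-35, 1 mM EDTA, 5 mM DTT. Fluorescence ex 340/em 450 nm; IC50 by variable-slope fit.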

| SMILES | pIC50 |
| --- | --- |
| N[C@@H]1c2ccccc2CC12CCN(c1nc3[nH]nc(C4(c5cccnc5)CC4)c3c(=O)[nH]1)CC2 [Example 247, (S)-6-(1-amino-1,3-dihydrospiro[indene-2,4′-piperidin]-1′-yl)-3-(1-(pyridin-3-yl)cyclopropyl)-1,5-dihydro-4H-pyrazolo[3,4-d]pyrimidin-4-one] | ≥ 7.70 |
| Cc1cccc(C2(c3n[nH]c4nc(N5CCC6(CC5)Cc5ccccc5[C@H]6N)[nH]c(=O)c34)CC2)n1 [Example 248, (S)-6-(1-amino-1,3-dihydrospiro[indene-2,4′-piperidin]-1′-yl)-3-(1-(6-methylpyridin-2-yl)cyclopropyl)-1,5-dihydro-4H-pyrazolo[3,4-d]pyrimidin-4-one] | ≥ 7.70 |
| N[C@@H]1c2ccccc2CC12CCN(c1nc3[nH]nc(C4(c5coc6ccccc56)CC4)c3c(=O)[nH]1)CC2 [Example 250, (S)-6-(1-amino-1,3-dihydrospiro[indene-2,4′-piperidin]-1′-yl)-3-(1-(benzofuran-3-yl)cyclopropyl)-1,5-dihydro-4H-pyrazolo[3,4-d]pyrimidin-4-one] | ≥ 7.70 |
| N[C@@H]1c2ccccc2CC12CCN(c1nc3[nH]nc(C4(c5nc6ccccc6[nH]5)CC4)c3c(=O)[nH]1)CC2 [Example 251, (S)-3-(1-(1H-benzo[d]imidazol-2-yl)cyclopropyl)-6-(1-amino-1,3-dihydrospiro[indene-2,4′-piperidin]-1′-yl)-1,5-dihydro-4H-pyrazolo[3,4-d]pyrimidin-4-one] | 7.22 to 7.70 |
| N[C@@H]1c2ccccc2CC12CCN(c1nc3[nH]nc(C4(c5c[nH]nn5)CC4)c3c(=O)[nH]1)CC2 [Example 253, (S)-3-(1-(1H-1,2,3-triazol-4-yl)cyclopropyl)-6-(1-amino-1,3-dihydrospiro[indene-2,4′-piperidin]-1′-yl)-1,5-dihydro-4H-pyrazolo[3,4-d]pyrimidin-4-one] | ≥ 7.70 |
| N[C@@H]1c2ccccc2CC12CCN(c1nc3[nH]nc(C4(c5ccco5)CC4)c3c(=O)[nH]1)CC2 [Example 256, (S)-6-(1-amino-1,3-dihydrospiro[indene-2,4′-piperidin]-1′-yl)-3-(1-(furan-2-yl)cyclopropyl)-1,5-dihydro-4H-pyrazolo[3,4-d]pyrimidin-4-one] | ≥ 7.70 |
| C[C@@H]1OCC2(CCN(c3cnc(C4(c5ccccc5)CC4)cn3)CC2)[C@@H]1N [Example 258, (3S,4S)-3-methyl-8-(5-(1-phenylcyclopropyl)pyrazin-2-yl)-2-oxa-8-azaspiro[4.5]decan-4-amine] | < 7.22 |
| C[C@@H]1OCC2(CCN(c3ncc(C4(c5ccccc5)CC4)nc3C(N)=O)CC2)[C@@H]1N [Example 259, 3-((3S,4S)-4-amino-3-methyl-2-oxa-8-azaspiro[4.5]decan-8-yl)-6-(1-phenylcyclopropyl)pyrazine-2-carboxamide] | < 7.22 |
| C[C@@H]1OCC2(CCN(c3ncc(C4(c5ccccc5)CC4)nc3CO)CC2)[C@@H]1N [Example 260, (3-((3S,4S)-4-amino-3-methyl-2-oxa-8-azaspiro[4.5]decan-8-yl)-6-(1-phenylcyclopropyl)pyrazin-2-yl)methanol] | < 7.22 |
| Cc1nc(N2CCC3(CC2)CO[C@@H](C)[C@H]3N)c(CO)nc1C1(c2ccccc2)CC1 [Example 261, (3-((3S,4S)-4-amino-3-methyl-2-oxa-8-azaspiro[4.5]decan-8-yl)-5-methyl-6-(1-phenylcyclopropyl)pyrazin-2-yl)methanol] | < 7.22 |
| C[C@@H]1OCC2(CCN(c3ncc(C4(c5ccccc5)CC4)c(=O)[nH]3)CC2)[C@@H]1N [Example 262, 2-((3S,4S)-4-amino-3-methyl-2-oxa-8-azaspiro[4.5]decan-8-yl)-5-(1-phenylcyclopropyl)pyrimidin-4(3H)-one] | < 7.22 |
| C[C@@H]1OCC2(CCN(c3ncc(C4(c5ccccc5)CC4)c(=O)n3C)CC2)[C@@H]1N [Example 263, 2-((3S,4S)-4-amino-3-methyl-2-oxa-8-azaspiro[4.5]decan-8-yl)-3-methyl-5-(1-phenylcyclopropyl)pyrimidin-4(3H)-one] | < 7.22 |
| C[C@@H]1OCC2(CCN(c3nc(N)c(C4(c5ccccc5)CC4)c(=O)n3C)CC2)[C@@H]1N [Example 264, 6-amino-2-((3S,4S)-4-amino-3-methyl-2-oxa-8-azaspiro[4.5]decan-8-yl)-3-methyl-5-(1-phenylcyclopropyl)pyrimidin-4(3H)-one] | < 7.22 |
| C[C@@H]1OCC2(CCN(C3=NC(N)=C(C4(c5ccccc5)CC4)C4=NCCCN43)CC2)[C@@H]1N [Example 265, (3S,4S)-8-(8-amino-9-(1-phenylcyclopropyl)-3,4-dihydro-2H-pyrimido[1,6-a]pyrimidin-6-yl)-3-methyl-2-oxa-8-azaspiro[4.5]decan-4-amine] | < 7.22 |
| C[C@@H]1OCC2(CCN(C3=NC4=NCCN4C(N)=C3C3(c4ccccc4)CC3)CC2)[C@@H]1N [Example 266, (3S,4S)-8-(5-amino-6-(1-phenylcyclopropyl)-2,3-dihydroimidazo[1,2-a]pyrimidin-7-yl)-3-methyl-2-oxa-8-azaspiro[4.5]decan-4-amine] | < 7.22 |
| C[C@@H]1OCC2(CCN(c3ncc4c(C5(c6ccccc6)CC5)n[nH]c4n3)CC2)[C@@H]1N [Example 267, (3S,4S)-3-methyl-8-(3-(1-phenylcyclopropyl)-1H-pyrazolo[3,4-d]pyrimidin-6-yl)-2-oxa-8-azaspiro[4.5]decan-4-amine] | 7.22 to 7.70 |
| C[C@@H]1OCC2(CCN(c3cnc4c(C5(c6ccsc6)CC5)n[nH]c4n3)CC2)[C@@H]1N [Example 268, (3S,4S)-3-methyl-8-(3-(1-(thiophen-3-yl)cyclopropyl)-1H-pyrazolo[3,4-b]pyrazin-6-yl)-2-oxa-8-azaspiro[4.5]decan-4-amine] | 7.22 to 7.70 |
| C[C@@H]1OCC2(CCN(c3cnc4c(C5(c6ccccc6)CC5)c[nH]c4n3)CC2)[C@@H]1N [Example 269, (3S,4S)-3-methyl-8-(7-(1-phenylcyclopropyl)-5H-pyrrolo[2,3-b]pyrazin-3-yl)-2-oxa-8-azaspiro[4.5]decan-4-amine] | < 7.22 |
| C[C@@H]1OCC2(CCN(c3nc4[nH]nc(C5(c6ccccc6)CC5)c4c(=O)[nH]3)CC2)[C@@H]1N [Example 270, 6-((3S,4S)-4-amino-3-methyl-2-oxa-8-azaspiro[4.5]decan-8-yl)-3-(1-phenylcyclopropyl)-1,5-dihydro-4H-pyrazolo[3,4-d]pyrimidin-4-one] | 7.22 to 7.70 |
| N[C@@H]1COCC12CCN(c1nc3[nH]nc(C4(c5ccccc5)CC4)c3c(=O)[nH]1)CC2 [Example 271, (S)-6-(4-amino-2-oxa-8-azaspiro[4.5]decan-8-yl)-3-(1-phenylcyclopropyl)-1,5-dihydro-4H-pyrazolo[3,4-d]pyrimidin-4-one] | 7.22 to 7.70 |
| C[C@@H]1OCC2(CCN(c3nc4[nH]nc(C5(c6ccccc6)CC5)c4c(=O)n3C)CC2)[C@@H]1N [Example 272, 6-((3S,4S)-4-amino-3-methyl-2-oxa-8-azaspiro[4.5]decan-8-yl)-5-methyl-3-(1-phenylcyclopropyl)-1,5-dihydro-4H-pyrazolo[3,4-d]pyrimidin-4-one] | 7.22 to 7.70 |
| C[C@@H]1OCC2(CCN(c3nc4[nH]nc(C5(c6ccncn6)CC5)c4c(=O)[nH]3)CC2)[C@@H]1N [Example 273, 6-((3S,4S)-4-amino-3-methyl-2-oxa-8-azaspiro[4.5]decan-8-yl)-3-(1-(pyrimidin-4-yl)cyclopropyl)-1,5-dihydro-4H-pyrazolo[3,4-d]pyrimidin-4-one] | 7.22 to 7.70 |
| C[C@@H]1OCC2(CCN(c3nc4[nH]nc(C5(c6ccncc6)CC5)c4c(=O)[nH]3)CC2)[C@@H]1N [Example 274, 6-((3S,4S)-4-amino-3-methyl-2-oxa-8-azaspiro[4.5]decan-8-yl)-3-(1-(pyridin-4-yl)cyclopropyl)-1,5-dihydro-4H-pyrazolo[3,4-d]pyrimidin-4-one] | 7.22 to 7.70 |
| C[C@@H]1OCC2(CCN(c3nc4[nH]nc(C5(c6cccnc6)CC5)c4c(=O)[nH]3)CC2)[C@@H]1N [Example 275, 6-((3S,4S)-4-amino-3-methyl-2-oxa-8-azaspiro[4.5]decan-8-yl)-3-(1-(pyridin-3-yl)cyclopropyl)-1,5-dihydro-4H-pyrazolo[3,4-d]pyrimidin-4-one] | 7.22 to 7.70 |
| C[C@@H]1OCC2(CCN(c3nc4[nH]nc(C5(c6ccccn6)CC5)c4c(=O)[nH]3)CC2)[C@@H]1N [Example 276, 6-((3S,4S)-4-amino-3-methyl-2-oxa-8-azaspiro[4.5]decan-8-yl)-3-(1-(pyridin-2-yl)cyclopropyl)-1,5-dihydro-4H-pyrazolo[3,4-d]pyrimidin-4-one] | 7.22 to 7.70 |
| C[C@@H]1OCC2(CCN(c3nc4[nH]nc(C5(c6nccs6)CC5)c4c(=O)[nH]3)CC2)[C@@H]1N [Example 277, 6-((3S,4S)-4-amino-3-methyl-2-oxa-8-azaspiro[4.5]decan-8-yl)-3-(1-(thiazol-2-yl)cyclopropyl)-1,5-dihydro-4H-pyrazolo[3,4-d]pyrimidin-4-one] | 7.22 to 7.70 |
